Data taken from ChEMBL document CHEMBL4184139, “Adamantyl- and other polycyclic cage-based conjugates of desferrioxamine B (DFOB) for treating iron-mediated toxicity in cell models of Parkinson's disease” (Bioorg Med Chem Lett, 2017).
Active and inactive are the calls of the source. The calls are words filed in the database; no cut-off is given here.

Experiments:
[1] = Octanol-water partition coefficient, log P of the compound at 1 mg by RP-HPLC analysis; type: physicochemical
SK-N-BE(2)-M17 [2] = test: Cytoprotection against PQ-induced cell death in human SK-N-BE(2)-M17 cells assessed as increase in cell viability at 100 uM pretreated for 2 hrs followed by 1 mM PQ addition measured after 24 hrs by MTT assay; type: functional, cell-based
SK-N-BE(2)-M17 [3] = test: Cytoprotection against PQ-induced cell death in human SK-N-BE(2)-M17 cells assessed as increase in cell viability at 100 uM pretreated for 2 hrs followed by 1 mM PQ addition measured after 24 hrs by LDH assay; type: functional, cell-based
SK-N-BE(2)-M17 [4] = test: Cytoprotection against H2O2-induced cell death in human SK-N-BE(2)-M17 cells assessed as increase in cell viability at 100 uM pretreated for 2 hrs followed by 1 mM H2O2 addition measured after 24 hrs by MTT assay; type: functional, cell-based
SK-N-BE(2)-M17 [5] = test: Cytoprotection against H2O2-induced cell death in human SK-N-BE(2)-M17 cells assessed as increase in cell viability at 100 uM pretreated for 2 hrs followed by 1 mM H2O2 addition measured after 24 hrs by LDH assay; type: functional, cell-based
SK-N-BE(2)-M17 [6] = test: Cytoprotection against PQ-induced cell death in human SK-N-BE(2)-M17 cells assessed as increase in cell viability at 100 uM treated 2 hrs post 2 mM PQ treatment measured after 24 hrs by MTT assay; type: functional, cell-based
SK-N-BE(2)-M17 [7] = test: Cytoprotection against PQ-induced cell death in human SK-N-BE(2)-M17 cells assessed as increase in cell viability at 100 uM treated 2 hrs post 2 mM PQ treatment measured after 24 hrs by LDH assay; type: functional, cell-based
SK-N-BE(2)-M17 [8] = test: Cytoprotection against H2O2-induced cell death in human SK-N-BE(2)-M17 cells assessed as increase in cell viability at 100 uM treated 2 hrs post 0.8 mM H2O2 treatment measured after 24 hrs by MTT assay; type: functional, cell-based
SK-N-BE(2)-M17 [9] = test: Cytoprotection against H2O2-induced cell death in human SK-N-BE(2)-M17 cells assessed as increase in cell viability at 100 uM treated 2 hrs post 0.8 mM H2O2 treatment measured after 24 hrs by LDH assay; type: functional, cell-based
SK-N-BE(2)-M17 [10] = test: Cytoprotection against PQ-induced cell death in human SK-N-BE(2)-M17 cells assessed as increase in cell viability treated 2 hrs post 2 mM PQ treatment measured after 24 hrs by MTT assay; type: functional, cell-based
Astrocyte [11] = test: Cytoprotection against H2O2-induced cell death in BSO pretreated C57BL6/J mouse brain primary astrocytes assessed as increase in cell viability at 10 uM pretreated for 2 hrs followed by H2O2 addition measured after 24 hrs by MTT assay; type: functional, cell-based
Astrocyte [12] = test: Cytoprotection against H2O2-induced cell death in BSO pretreated C57BL6/J mouse brain primary astrocytes assessed as increase in cell viability at 10 uM pretreated for 2 hrs followed by H2O2 addition measured after 24 hrs by LDH release assay; type: functional, cell-based
[13] = Binding affinity to Fe3+ in ferric ammonium citrate loaded C57BL6/J mouse brain primary astrocytes assessed as iron depletion at 100 uM treated 2 hrs post 125 uM FAC loading measured after 2 hrs by ICP-MS analysis; type: cell-based
SK-N-BE(2)-M17 [14] = test: Cytotoxicity against human SK-N-BE(2)-M17 cells at 100 uM 24 hrs by MTT assay; type: cell-based; conditions: sk-n-be(2)-m17, 24 h
SK-N-BE(2)-M17 [15] = test: Cytotoxicity against human SK-N-BE(2)-M17 cells at 100 uM 24 hrs by LDH release assay; type: cell-based; conditions: sk-n-be(2)-m17, 24 h
[16] = Binding affinity to Fe3+ assessed as [M+H]+ adduct formation by LC-MS/MS analysis
[17] = Binding affinity to Fe3+ assessed as [M+2H]+ adduct formation by LC-MS/MS analysis
[18] = Binding affinity to Fe3+ assessed as change in retention time for compound-Fe3+ complex by RP-HPLC analysis relative to free ligand
SK-N-BE(2)-M17 [19] = test: Cytoprotection against PQ-induced cell death in human SK-N-BE(2)-M17 cells assessed as increase in cell viability at 100 uM treated post 200 uM Fecl3 and 1 mM PQ treatment measured after 24 hrs by MTT assay; type: functional, cell-based
SK-N-BE(2)-M17 [20] = test: Cytoprotection against PQ-induced cell death in human SK-N-BE(2)-M17 cells assessed as increase in cell viability at 100 uM treated post 200 uM Fecl3 and 1 mM PQ treatment measured after 24 hrs by LDH assay; type: functional, cell-based
SK-N-BE(2)-M17 [21] = test: Cytoprotection against PQ-induced cell death in human SK-N-BE(2)-M17 cells assessed as increase in cell viability up to 1 mM treated 2 hrs post 2 mM PQ treatment by MTT assay; type: functional, cell-based
[22] = Binding affinity to Fe3+
[23] = Binding affinity to Fe2+
SK-N-BE(2)-M17 [24] = test: Cytoprotection against PQ-induced cell death in human SK-N-BE(2)-M17 cells assessed as increase in cell viability at 1 mM pretreated for 2 hrs followed by 1 mM PQ addition measured after 24 hrs by MTT assay; type: functional, cell-based
SK-N-BE(2)-M17 [25] = test: Cytoprotection against PQ-induced cell death in human SK-N-BE(2)-M17 cells assessed as increase in cell viability at 1 mM pretreated for 2 hrs followed by 1 mM PQ addition measured after 24 hrs by LDH assay; type: functional, cell-based
SK-N-BE(2)-M17 [26] = test: Cytoprotection against H2O2-induced cell death in human SK-N-BE(2)-M17 cells assessed as increase in cell viability at 1 mM pretreated for 2 hrs followed by 1 mM H2O2 addition measured after 24 hrs by MTT assay; type: functional, cell-based
SK-N-BE(2)-M17 [27] = test: Cytoprotection against H2O2-induced cell death in human SK-N-BE(2)-M17 cells assessed as increase in cell viability at 1 mM pretreated for 2 hrs followed by 1 mM H2O2 addition measured after 24 hrs by LDH assay; type: functional, cell-based

| logP [1] | Activity [13] | Activity [16] | Activity [17] | Retention time [18] [min] | Structure (SMILES) | Activity (SK-N-BE(2)-M17 [2]) | Activity (SK-N-BE(2)-M17 [3]) | Activity (SK-N-BE(2)-M17 [4]) | Activity (SK-N-BE(2)-M17 [5]) | Activity (SK-N-BE(2)-M17 [6]) | Activity (SK-N-BE(2)-M17 [7]) | Activity (SK-N-BE(2)-M17 [8]) | Activity (SK-N-BE(2)-M17 [9]) | EC50 (SK-N-BE(2)-M17 [10]) [µM] | Activity (Astrocyte [11]) | Activity (Astrocyte [12]) | Activity (SK-N-BE(2)-M17 [14]) | Activity (SK-N-BE(2)-M17 [15]) | Activity (SK-N-BE(2)-M17 [19]) | Activity (SK-N-BE(2)-M17 [20]) | other results |
| --- | --- | --- | --- | --- | --- | --- | --- | --- | --- | --- | --- | --- | --- | --- | --- | --- | --- | --- | --- | --- | --- |
| 2.82 | Active | Active | Active | 3.67 | CCCCC[C@]12CC[C@@H](CC1)[C@@H](C(=O)NCCCCCN(O)C(=O)CCC(=O)NCCCCCN(O)C(=O)CCC(=O)NCCCCCN(O)C(C)=O)C2 (relative stereo) | Active | Active | Active | Active | Active | Active | Active | Active | 10 | Active | Active | Non-Toxic | Non-Toxic | – | – | – |
| 0.96 | Active | Active | Active | -0.04 | CC(=O)N(O)CCCCCNC(=O)CCC(=O)N(O)CCCCCNC(=O)CCC(=O)N(O)CCCCCNC(=O)C1CCCCC1 | inactive | inactive | inactive | inactive | inactive | inactive | inactive | inactive | – | – | – | Non-Toxic | Non-Toxic | – | – | – |
| 2.54 | – | Active | Active | 1.85 | CC(=O)N(O)CCCCCNC(=O)CCC(=O)N(O)CCCCCNC(=O)CCC(=O)N(O)CCCCCNC(=O)C12CC3(C)CC(C)(CC(C)(C3)C1)C2 | Active | Active | Active | Active | Active | – | Active | – | 3.4 | Active | Active | Non-Toxic | Non-Toxic | Active | Active | – |
| -2.29 | inactive | – | – | -0.52 | CC(=O)N(O)CCCCCNC(=O)CCC(=O)N(O)CCCCCNC(=O)CCC(=O)N(O)CCCCCN [DEFEROXAMINE] | – | – | – | – | – | – | – | – | – | – | – | – | – | – | – | Activity (SK-N-BE(2)-M17 [21]): inactive; log K [22]: 30; log K [23]: 8; Activity (SK-N-BE(2)-M17 [24]): Active; Activity (SK-N-BE(2)-M17 [25]): Active; Activity (SK-N-BE(2)-M17 [26]): Active; Activity (SK-N-BE(2)-M17 [27]): Active |
| 2.17 | Active | Active | Active | 1.54 | CC(=O)N(O)CCCCCNC(=O)CCC(=O)N(O)CCCCCNC(=O)CCC(=O)N(O)CCCCCNC(=O)CC12CC3CC(C)(CC(C)(C3)C1)C2 | Active | Active | Active | Active | Active | – | – | – | 5.8 | Active | Active | Non-Toxic | Non-Toxic | Active | Active | – |
